Where no end group is shown, it is not given here.
Tests used:
indicated HLA alleles [1] = test: Affinity of mutant EGFR neopeptides for indicated HLA alleles; assay type: binding, human
indicated HLA alleles [2] = test: Stability of mutant EGFR neopeptides with the HLA alleles; assay type: binding, human
Procedure: (§1) Multiple peptides containing neoepitopes in the table below were either expressed or loaded onto antigen presenting cells. Mass spectrometry was then performed and the affinity of the neoepitopes for indicated HLA alleles were determined, and the stability of the neoepitopes with the HLA alleles were determined.

indicated HLA alleles [3] = test: Stability of GATA3 neoORF neoepitopes with the HLA alleles (Example 9, Table 4); assay type: binding, human
Procedure: (§2) Multiple peptides containing the neoepitopes in Table 4 below were expressed or loaded onto antigen presenting cells (APCs). Mass spectrometry was then performed and the affinity of the neoepitopes for the indicated HLA alleles and stability of the neoepitopes with the HLA alleles was determined.

indicated HLA alleles [4] = molecular target: indicated HLA alleles (Homo sapiens, UniProt P01889); test: Affinity of GATA3 neoORF neoepitopes for the indicated HLA alleles (Example 9, Table 4); assay type: binding
Procedure: as §2

HLA-B08:01 [5] = molecular target: T1, HLA-B08:01 (Homo sapiens, UniProt P01889, A93T/A95T/D138N/E176V/E187T/K202T/Q94N/R180D/S35A/V36M/Y33D/Y91F); test: biochemical
HLA-B08:01 [6] = molecular target: T1, HLA-B08:01; test: Stability measurements, pMHC-I dissociation with 125I light chain (Example 20); assay type: binding; details: for Average half-life: average of experiments 1 and 2
Procedure: (§3) To measure the binding stability of peptides to Class I MHC, synthetic genes encoding biotinylated MHC-I heavy and light chains are expressed in E. coli and purified from inclusion bodies using standard methods. […] These reactions were carried out in streptavidin coated microplates to bind the biotinylated MHC-I heavy chains to the surface and allow measurement of radiolabeled light chain to monitor complex formation. Dissociation was initiated by addition of higher concentrations of unlabeled light-chain and incubation at 37° C. Stability was defined as the length of time in hours it takes for half of the complexes to dissociate, as measured by scintillation counts. Duplicate measurements were performed. The average of the two measurements was taken as the stability.

indicated HLA alleles [7] = test: Stability of mutant BTK neopeptides with the HLA alleles; assay type: binding, human; details: BTK, C481S
Procedure: as §1

indicated HLA alleles [8] = molecular target: T2, indicated HLA alleles (Homo sapiens, UniProt P04439); test: as above; assay type: binding; details: BTK, C481S; HLA A03.01
Procedure: as §1

indicated HLA alleles [9] = test: Affinity of mutant BTK neopeptides for indicated HLA alleles; assay type: binding, human; details: BTK, C481S
Procedure: as §1

indicated HLA alleles [10] = molecular target: T2, indicated HLA alleles; test: as above; assay type: binding
Procedure: as §1

HLA-B07:02 [11] = molecular target: T3, HLA-B07:02 (Homo sapiens, UniProt P01889); test: Affinity measurements, competition with radiolabeled peptide (Example 20); assay type: binding
HLA-B07:02 [12] = molecular target: T3, HLA-B07:02; test: Stability measurements, pMHC-I dissociation with 125I light chain (Example 20); assay type: binding
Procedure: as §3

CD8+ T cells = test: Immunogenicity on MHC I: FLT3L/mDC long term stimulation of healthy donor PBMCs, multimer readout (Example 23); details: A02:01
indicated HLA alleles [13] = test: Affinity of GATA3 neoORF neoepitopes for the indicated HLA alleles (Example 9, Table 4); assay type: binding, human; details: Allele A02.01; read-out: Observed MHC affinity
Procedure: as §2

HLA-A02:01 [14] = molecular target: T4, HLA-A02:01 (Homo sapiens, UniProt P04439, D140Y/D185E/D98H/E176V/E277Q/G131W/G231S/I119V/I121R/I166T/I218V/L300P/L318F/N151K/N90K/P208A/P217A/Q86G/Q94H/R138H/R169H/T345S); test: Stability measurements, pMHC-I dissociation with 125I light chain (Example 20); assay type: binding; details: for Average half-life: average of experiments 1 and 2
Procedure: as §3

[15] = test system: antigen specific CD8+ T cells; test: Antigen specific CD8+ T cell induction monitored with pMHC multimers (Example 10); assay type: cell-based, human; details: healthy donor PBMCs, flow cytometry after stimulation or induction
Procedure: PBMC samples from a human donor were used to perform antigen specific T cell induction. CD8^+ T cell inductions were analyzed after manufacturing T cells. Cell samples can be taken out at different time points for analysis. pMIHC multimers were used to monitor the fraction of antigen specific CD8^+ T cells in the induction cultures. […] FIG. 9A depicts an exemplary result of a T cell response assay using PBMCs from 6 different healthy donors showing the fraction of antigen specific CD8^+ T cells that responded to […] peptide analyzed by flow cytometry after stimulation or induction. […] FIG. 9B depicts an exemplary result of a T cell response assay using PBMCs from a healthy donor showing fraction of antigen specific CD8^+ T cells that responded to […] peptide analyzed by flow cytometry after stimulation or induction.

HLA-A02:01 [16] = molecular target: T4, HLA-A02:01; test: Detection of GATA3 neoORF peptides by mass spectrometry (Example 8); assay type: cell-based; details: 293T cells transduced with GATA3 neoORF lentiviral vector, expressing HLA-A02:01; peptides eluted from HLA-peptide complexes, MS/MS

Molecule: CC[C@H](C)[C@H](NC(=O)[C@H](CC(C)C)NC(=O)[C@H](CCC(N)=O)NC(=O)[C@@H](NC(=O)[C@@H](NC(=O)[C@H](CO)NC(=O)[C@@H](NC(=O)[C@H](CC(C)C)NC(=O)[C@@H](N)CS)[C@@H](C)O)[C@@H](C)O)C(C)C)C(=O)N[C@@H](CCSC)C(=O)O
- Kd (indicated HLA alleles [1]; EGFR T790M, HLA A01.01): 8280 nM
- Kd (indicated HLA alleles [1]; EGFR_T790M, HLA A02.01): 537 nM
- Stability (1/2 hr) (indicated HLA alleles [2]; EGFR T790M, HLA A01.01): 0 h
- Stability (1/2 hr) (indicated HLA alleles [2]; EGFR_T790M, HLA A02.01): 0 h

Molecule: CC(C)C[C@H](NC(=O)[C@@H]1CCCN1C(=O)[C@H](CCC(N)=O)NC(=O)[C@H](CC(C)C)NC(=O)[C@H](C)NC(=O)[C@H](CC(C)C)NC(=O)[C@H](Cc1c[nH]cn1)NC(=O)[C@@H]1CCCN1C(=O)[C@@H](N)CCC(=O)O)C(=O)O
- Observed MHC stability (indicated HLA alleles [3]; Allele B07:02): 7.2 h
- Observed MHC stability (indicated HLA alleles [3]; Allele B08:01): 0 h
- Kd (indicated HLA alleles [4]): 17 nM

Molecule: CC[C@H](C)[C@H](NC(=O)[C@H](CCCCN)NC(=O)[C@H](CO)NC(=O)[C@H](CCC(=O)O)NC(=O)[C@H](C)NC(=O)[C@H](CCCCN)NC(=O)[C@H](CC(C)C)NC(=O)[C@@H](N)Cc1ccccc1)C(=O)N[C@@H](CCSC)C(=O)N[C@@H](Cc1ccccc1)C(=O)O
- Observed MHC stability (indicated HLA alleles [3]; Allele B08:01): 0 h
- IC50 (HLA-B08:01 [5]): 90 nM
- Experiment 2 half-life (HLA-B08:01 [6]): 0 min
- Average half-life (HLA-B08:01 [6]): 0 min

Molecule: CC[C@H](C)[C@H](N)C(=O)N[C@@H](CCSC)C(=O)N[C@@H](CCCCN)C(=O)N1CCC[C@H]1C(=O)N[C@@H](CCCCN)C(=O)N[C@@H](CCCNC(=N)N)C(=O)N[C@@H](CC(=O)O)C(=O)NCC(=O)N[C@@H](Cc1ccc(O)cc1)C(=O)N[C@@H](CCSC)C(=O)O
- Observed MHC stability (indicated HLA alleles [3]; Allele B08:01): 0.4 h
- IC50 (HLA-B08:01 [5]): 40.2 nM
- Experiment 1 half-life (HLA-B08:01 [6]): 24 min
- Experiment 2 half-life (HLA-B08:01 [6]): 24 min
- Average half-life (HLA-B08:01 [6]): 24 min

Molecule: CC[C@H](C)[C@H](NC(=O)[C@@H](N)CC(C)C)C(=O)N[C@@H](CCSC)C(=O)N[C@@H](CCC(N)=O)C(=O)N[C@@H](CC(C)C)C(=O)N[C@@H](CCSC)C(=O)N1CCC[C@H]1C(=O)N[C@@H](Cc1ccccc1)C(=O)NCC(=O)N[C@@H](CS)C(=O)O
- Kd (indicated HLA alleles [1]; EGFR_T790M, HLA A02.01): 132 nM
- Stability (1/2 hr) (indicated HLA alleles [2]; EGFR_T790M, HLA A02.01): 0.3813 h

Molecule: CSCC[C@H](N)C(=O)N[C@@H](C)C(=O)N[C@@H](CC(N)=O)C(=O)NCC(=O)N[C@@H](CO)C(=O)N[C@@H](CC(C)C)C(=O)N[C@@H](CC(C)C)C(=O)N[C@@H](CC(N)=O)C(=O)N[C@@H](Cc1ccc(O)cc1)C(=O)O
- Stability (1/2 hr) (indicated HLA alleles [7]; HLA A01.01): 0.2164 h
- Stability (1/2 hr) (indicated HLA alleles [8]): 0.238 h
- Kd (indicated HLA alleles [9]; HLA A01.01): 439 nM
- Kd (indicated HLA alleles [9]; HLA A11.01): 536 nM
- Kd (indicated HLA alleles [10]): 35.6 nM

Molecule: CSCC[C@H](N)C(=O)N[C@@H](Cc1ccccc1)C(=O)N[C@@H](C)C(=O)N[C@H](C(=O)N[C@@H](CC(C)C)C(=O)N[C@@H](CCC(N)=O)C(=O)N[C@@H](CCCNC(=N)N)C(=O)N[C@@H](CO)C(=O)N[C@@H](CO)C(=O)N[C@@H](CC(C)C)C(=O)O)[C@@H](C)O
- Observed MHC stability (indicated HLA alleles [3]; Allele B07:02): 0 h
- Observed MHC stability (indicated HLA alleles [3]; Allele B08:01): 0 h
- IC50 (HLA-B07:02 [11]): 350 nM
- Kd (indicated HLA alleles [4]): 267 nM
- Experiment 2 half-life (HLA-B08:01 [6]): 0 min
- Average half-life (HLA-B08:01 [6]): 0 min
- Experiment 2 half-life (HLA-B07:02 [12]): 0.0 h
- Average half-life (HLA-B07:02 [12]; average of experiments 1 and 2): 0.0 h

Molecule: CSCC[C@H](NC(=O)[C@@H](N)CO)C(=O)N[C@@H](CC(C)C)C(=O)N[C@H](C(=O)NCC(=O)N1CCC[C@H]1C(=O)N1CCC[C@H]1C(=O)N[C@@H](C)C(=O)N[C@@H](CCCNC(=N)N)C(=O)N[C@H](C(=O)O)C(C)C)[C@@H](C)O
- Observed MHC stability (indicated HLA alleles [3]; Allele A02.01): 21.7 h
- Percent positive inductions (CD8+ T cells; naive CD8+ induction confirmed over two stimulations): 20%
- Number of wells with a reactive TCR (CD8+ T cells; of 5 wells tested, healthy donor PBMCs): 1
- Kd (indicated HLA alleles [13]): 14 nM
- Experiment 1 half-life (HLA-A02:01 [14]): 1300 min
- Experiment 2 half-life (HLA-A02:01 [14]): 1310 min
- Average half-life (HLA-A02:01 [14]): 1300 min
- fraction of antigen specific CD8+ T cells that responded to peptide [15]: increase in the fraction of antigen specific T cells
- detected by mass spectrometry (HLA-A02:01 [16]): detected

Molecule: CC[C@H](C)[C@H](NC(=O)[C@H](CCCCN)NC(=O)[C@H](CO)NC(=O)[C@H](CCC(=O)O)NC(=O)[C@H](C)NC(=O)[C@H](CCCCN)NC(=O)[C@H](CC(C)C)NC(=O)[C@H](Cc1ccccc1)NC(=O)[C@H](CCSC)NC(=O)[C@@H](N)Cc1ccc(O)cc1)C(=O)O
- Observed MHC stability (indicated HLA alleles [3]; Allele A02.01): 0.6 h
- Observed MHC stability (indicated HLA alleles [3]; Allele A24:02): 1.2 h
- Observed MHC stability (indicated HLA alleles [3]; Allele B08:01): 0.4 h
- Experiment 1 half-life (HLA-A02:01 [14]): 36 min
- Experiment 2 half-life (HLA-A02:01 [14]): 36 min
- Average half-life (HLA-A02:01 [14]): 36 min
- Experiment 1 half-life (HLA-B08:01 [6]): 24 min
- Experiment 2 half-life (HLA-B08:01 [6]): 30 min
- Average half-life (HLA-B08:01 [6]): 24 min

Molecule: AIQPVLWTT
- Observed MHC stability (indicated HLA alleles [3]; Allele A02.01): 1.5 h
- Kd (indicated HLA alleles [13]): 8 nM

Molecule: ALQPLQPHA
- Observed MHC stability (indicated HLA alleles [3]; Allele A02.01): 1.5 h
- Kd (indicated HLA alleles [13]): 604 nM

Molecule: EYMANGSLL
- Stability (1/2 hr) (indicated HLA alleles [7]; HLA A24.02): 5.716 h
- Kd (indicated HLA alleles [9]; HLA A24.02): 4.96 nM

Source: patent publication US20210275657A1, “NEOANTIGENS AND USES THEREOF” (BioNTech US Inc., priority 2018, published 2021)
